No end group written: not given here.
Tests used:
GALR2 [1] = target: T1, GALR2 (Homo sapiens, UniProt O43603); experiment: FLIPR assay (intracellular calcium release); assay type: cell-based; parameters: expressed in transfected cells; host or cells: CHO-K1 (coexpressing Gα16); conditions: CHO-K1 cells coexpressing Gα16 and human GALR2
T1 sequence (O43603 1-387): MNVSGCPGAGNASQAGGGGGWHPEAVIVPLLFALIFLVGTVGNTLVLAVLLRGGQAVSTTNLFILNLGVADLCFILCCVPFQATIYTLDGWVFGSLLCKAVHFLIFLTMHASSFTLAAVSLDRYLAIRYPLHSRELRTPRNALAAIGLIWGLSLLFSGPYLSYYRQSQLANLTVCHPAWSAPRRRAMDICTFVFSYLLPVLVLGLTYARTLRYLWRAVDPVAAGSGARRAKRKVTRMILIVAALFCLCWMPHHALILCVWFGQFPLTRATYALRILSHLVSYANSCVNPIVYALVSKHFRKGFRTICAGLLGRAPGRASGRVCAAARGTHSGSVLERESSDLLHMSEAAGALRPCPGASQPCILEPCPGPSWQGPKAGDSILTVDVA
Experimental: CHO-K1 cells coexpressing Gα16 and the recombinant human GALR2 receptor grown to mid-log phase in culture media are detached with PBS-EDTA, centrifuged, resuspended in cell-culture medium (HAM's F12 with HEPES, 10% (v/v) Fetal Calf Serum), and dispensed at 15′000 cells per well in 384-well FLIPR plates. After overnight incubation in a humidified 37° C./5% CO2 incubator, the medium was discarded and replaced with a dye solution (DMEM w/o Phenol Red with HEPES, Fluo4-AM and Probenecid). After an incubation of 1 hour in a humidified 37° C./5% CO2 incubator, the dye solution was replaced by Assay Medium (HBSS/DMEM w/o phenol red). […] The resulting emission of fluorescence is recorded using FLIPR tetra. For antagonist testing 100 μl of the Neuropeptide Q polypeptide at its EC80 is injected on the mix of cells and candidate modulator, following an incubation of 15 min after the first injection. The resulting emission of fluorescence is recorded using FLIPR tetra. Agonist activity of the candidate modulator is expressed as a percentage of the activity of the Neuropeptide Q polypeptide at its EC100 concentration. Antagonist activity of the candidate modulator is expressed as a percentage of the inhibition of Neuropeptide Q polypeptide activity at its EC80 concentration.

stomach muscle = conditions: stomach explants, dose-dependent contraction; cited from earlier work
GALR2 [2] = target: T1, GALR2; conditions: in vitro studies; cited from earlier work

| Substance | EC50 (GALR2 [1]) [nM] | also measured |
| --- | --- | --- |
| NWTPQAMLYLKGAAG | 0.1 |  |
| NWTPQAMLYLKGAQP | 0.3 |  |
| NWTPQAMLYLKGAQ [Neuropeptide Q, synthetic amidated Neuropeptide Q tested by Mirabeau et al] |  | EC50 (stomach muscle): 750 nM |
| PWTPQAMLYLKGAQG | 0.1 |  |
| galanin-(2-13)-Glu-His-(Pro)3-(Ala-Leu)2-Ala-amide [Peptide M871] |  | higher affinity for GALR2 than for GALR1 (GALR2 [2]): 32 fold |
| NWTPQAMLYLKGPQG | 0.3 |  |

— patent US9057726B2, “Neuropeptide Q as modulator of GPCR GALR2 and uses thereof” (Actelion Pharmaceuticals Ltd., priority 2010, dated 2015)
